Values after ≈ are worked out from the molar mass of the structure shown.
Key:
[1] = Solubility of perfluorotridecane in sevoflurane; assay type: physicochemical; details: organic solvent or mixture, read-out: maximum solubility of perfluorotridecane in sevoflurane
Excerpt: If intercalation of perfluorotridecane between the perfluorocarbon blocks of F13M5 is the reason that phase separation occurred with sevoflurane, the same effect might be expected to happen when perfluorotridecane is used as an additive to stabilize emulsions of either FC-72 and perfluorooctyl bromide. […] The difference in emulsion stability is likely due to the different solubility of perfluorotridecane in the three fluorinated compounds. […] It is likely that the limited solubility of perfluorotridecane in sevoflurane led to its preferential adsorption at the interface, rather than at the center of the droplet. The greater solubility of perfluorotridecane in the other solvents allowed it to more easily reside in the center of the droplet and act truly as a secondary oil additive.

[2] = Emulsion droplet sizing and stability by dynamic light scattering and visual phase separation; assay type: physicochemical
Protocol: The emulsions were sized by dynamic light scattering prior to use. For these measurements, the emulsions were mixed by inversion of the centrifuge tube to eliminate inhomogeneity due to either flocculation or sedimentation. The emulsions were then diluted by a factor of 300 by adding 10 μL of the emulsion to 2.990 mL of 0.9% NaCl. Sizing was done by dynamic light scattering (NICOMP 380 ZLS, Particle Sizing Systems, Santa Barbara, Calif.) with a 639 nm laser at a scattering angle of 90°. Each sample was run for 15 min and all numbers are reported as Gaussian volume weighted. The emulsions were only used if the average diameter was less than 350 nm. This cutoff was established to ensure consistent physical characteristics of the emulsion and to prevent acute toxicity that can develop with increased particle size.^15 Additionally, the emulsion was filtered through a 0.45 μm nylon syringe filter. The final nano-emulsions are milky-white.
As a typical example, sevoflurane (Abbott Labs, N. Chicago, Ill., 3.4 mL) and perfluorooctyl bromide (SynQuest Laboratories, Inc., Alachua, Fla., 1.7 mL) were added to an aqueous 0.9% NaCl solution (11.9 mL) of F13M5 (298 mg, 25 mg/mL), for a total volume of 17 mL. The two-phase mixture was homogenized with a low energy mixer (Power Gen 500, Fisher Scientific, Hampton, N.H.) for 1 min at 21000 rpm at room temperature. The crude emulsion was further homogenized under high pressure (5000 psi, 1 min) using a Microfluidizer (model 110 S, Microfluidics Corp., Newton, Mass.) with the temperature maintained at 20.0° C. with a cooling bath. The product emulsions were stored in 15 mL sterile centrifuge tubes (Corning Inc., Corning, N.Y.) at 4° C. until use. All emulsions were prepared in this same manner with the requisite percentages of each component as necessary. Intralipid emulsions were prepared by adding sevoflurane to Intralipid (20%, Fresenius Kabi, Uppsala, Sweden) and then homogenizing and microfluidizing as above. […]

[3] = in vivo; cited from earlier work
[4] = cited from earlier work
[5] = cited from earlier work; remark: listed apart in the source
[6] = in vivo; cited from earlier work; remark: listed apart in the source

FC(F)(F)C(F)(F)C(F)(F)C(F)(F)C(F)(F)C(F)(F)C(F)(F)C(F)(F)C(F)(F)C(F)(F)C(F)(F)C(F)(F)C(F)(F)F [perfluorotridecane]
solubility [1]: 78 mg/mL (≈ 113 mM)

FC1(F)C(F)(F)C(F)(F)C2(F)C(F)(F)C(F)(F)C(F)(F)C(F)(F)C2(F)C1(F)F (centres unmarked) [perfluorodecalin]
ripening with different stabilizing additives [2]: ripen similarly

FC(F)(F)C(F)(F)C(F)(F)C(F)(F)C(F)(F)C(F)(F)C(F)(F)C(F)(F)Br [perfluorooctyl bromide]
ripening with different stabilizing additives [2]: ripen similarly
droplet size / Ostwald ripening with perfluorotridecane as the additive ([2]; 20% v/v primary oil, perfluorotridecane additive, 1.5% w/v F13M5): the size stabilized and Ostwald ripening appeared to be stopped
circulatory half-time / half life in the body [3]: four

FC(F)(F)C(F)(F)C(F)(F)C(F)(F)/C=C/C(F)(F)C(F)(F)C(F)(F)C(F)(F)F [bis-perfluorobutyl ethylene]
circulatory half-time / half life in the body [3]: 7 days

perfluoro(methyldecalin)
circulatory half-time / half life in the body [3]: 11 days

FCOC(C(F)(F)F)C(F)(F)F [sevoflurane]
water solubility [4]: 6 mM (≈ 1200 µg/mL)
maximum solubility of sevoflurane in 30% Intralipid ([5]; 30% Intralipid, gas equilibration): 3.46 % v/v
maximum amount of sevoflurane that can be stably emulsified in Intralipid ([5]; Intralipid): 3.5 % v/v
maximum of sevoflurane emulsified in Intralipid ([5]; in volume, non-fluorinated lipids (Intralipid)): 3.6%

CC(C)c1cccc(C(C)C)c1O [propofol]
therapeutic index, previously published values [6]: 3.1

CCCC(C)C1(CC)C(=O)NC(=S)NC1=O (centres unmarked) [thiopental]
therapeutic index, previously published values [6]: 2.2

FC(F)(Cl)C(F)(F)C(F)(F)C(F)(F)C(F)(F)C(F)(F)C(F)(F)C(F)(F)Cl [perfluorodichlorooctane]
circulatory half-time / half life in the body [3]: 7 days

From patent US9000048B2, “Fluoropolymer-based emulsions for the intravenous delivery of fluorinated volatile anesthetics” (Wisconsin Alumni Research Foundation, priority 2006, dated 2015)
